Source: the NIST ThermoML archive (doi:10.1021/acs.jced.8b00326)
± gives the expanded uncertainty stated by the source.

Assay: mn = molality of the nth substance listed, in mol/kg
Settings: 100 kPa, Liquid, Alternating current cell with electrodes

O [water] + CCCCCCCCCCCCCCCC[n+]1ccccc1.[Cl-]
electrical conductivity (293.15 K, m2 = 0): 0.0005 S/m
electrical conductivity (298.15 K, m2 = 0): 0.00053 S/m
electrical conductivity (303.15 K, m2 = 0): 0.00057 S/m
electrical conductivity (308.15 K, m2 = 0): 0.00058 S/m

CCCCCCCCCCCCCCCC[n+]1ccccc1.[Cl-] [cetylpyridinium chloride] + O
electrical conductivity (293.15 K, m1 = 0.0002): 0.00277 ± 0.0012 S/m
electrical conductivity (293.15 K, m1 = 0.0004): 0.00503 ± 0.0012 S/m
electrical conductivity (293.15 K, m1 = 0.0006): 0.0073 ± 0.0012 S/m
electrical conductivity (293.15 K, m1 = 0.0008): 0.00906 ± 0.0011 S/m
electrical conductivity (293.15 K, m1 = 0.001): 0.0102 ± 0.001 S/m
electrical conductivity (293.15 K, m1 = 0.0012): 0.0112 ± 0.001 S/m
electrical conductivity (293.15 K, m1 = 0.0014): 0.012 ± 0.001 S/m
electrical conductivity (293.15 K, m1 = 0.0016): 0.0128 ± 0.001 S/m
electrical conductivity (293.15 K, m1 = 0.0018): 0.0138 ± 0.001 S/m
electrical conductivity (293.15 K, m1 = 0.002): 0.0145 ± 0.001 S/m
electrical conductivity (298.15 K, m1 = 0.0002): 0.00283 ± 0.0013 S/m
electrical conductivity (298.15 K, m1 = 0.0004): 0.00513 ± 0.0013 S/m
electrical conductivity (298.15 K, m1 = 0.0006): 0.00755 ± 0.0013 S/m
electrical conductivity (298.15 K, m1 = 0.0008): 0.00982 ± 0.0011 S/m
electrical conductivity (298.15 K, m1 = 0.001): 0.0109 ± 0.001 S/m
electrical conductivity (298.15 K, m1 = 0.0012): 0.0118 ± 0.001 S/m
electrical conductivity (298.15 K, m1 = 0.0014): 0.0128 ± 0.001 S/m
electrical conductivity (298.15 K, m1 = 0.0016): 0.0139 ± 0.001 S/m
electrical conductivity (298.15 K, m1 = 0.0018): 0.0149 ± 0.001 S/m
electrical conductivity (298.15 K, m1 = 0.002): 0.0158 ± 0.0011 S/m
electrical conductivity (303.15 K, m1 = 0.0002): 0.00302 ± 0.0013 S/m
electrical conductivity (303.15 K, m1 = 0.0004): 0.00574 ± 0.0013 S/m
electrical conductivity (303.15 K, m1 = 0.0006): 0.00831 ± 0.0013 S/m
electrical conductivity (303.15 K, m1 = 0.0008): 0.011 ± 0.0013 S/m
electrical conductivity (303.15 K, m1 = 0.001): 0.0134 ± 0.0012 S/m
electrical conductivity (303.15 K, m1 = 0.0012): 0.0148 ± 0.0011 S/m
electrical conductivity (303.15 K, m1 = 0.0014): 0.016 ± 0.0011 S/m
electrical conductivity (303.15 K, m1 = 0.0016): 0.0172 ± 0.0011 S/m
electrical conductivity (303.15 K, m1 = 0.0018): 0.0184 ± 0.0011 S/m
electrical conductivity (303.15 K, m1 = 0.002): 0.0194 ± 0.001 S/m
electrical conductivity (308.15 K, m1 = 0.0002): 0.00337 ± 0.0014 S/m
electrical conductivity (308.15 K, m1 = 0.0004): 0.00645 ± 0.0014 S/m
electrical conductivity (308.15 K, m1 = 0.0006): 0.00954 ± 0.0014 S/m
electrical conductivity (308.15 K, m1 = 0.0008): 0.0126 ± 0.0014 S/m
electrical conductivity (308.15 K, m1 = 0.001): 0.0155 ± 0.0012 S/m
electrical conductivity (308.15 K, m1 = 0.0012): 0.017 ± 0.0011 S/m
electrical conductivity (308.15 K, m1 = 0.0014): 0.0183 ± 0.0011 S/m
electrical conductivity (308.15 K, m1 = 0.0016): 0.0196 ± 0.0011 S/m
electrical conductivity (308.15 K, m1 = 0.0018): 0.021 ± 0.0011 S/m
electrical conductivity (308.15 K, m1 = 0.002): 0.0223 ± 0.0011 S/m
